Assay results as given in ChEMBL document CHEMBL5291721, “A preclinical secondary pharmacology resource illuminates target-adverse drug reaction associations of marketed drugs” (Nat Commun, 2023).

Tests used:
Adenosine receptor A3 = target: T1, Adenosine receptor A3 (Homo sapiens, UniProt P0DMS8)
T1 sequence (P0DMS8 whole entry): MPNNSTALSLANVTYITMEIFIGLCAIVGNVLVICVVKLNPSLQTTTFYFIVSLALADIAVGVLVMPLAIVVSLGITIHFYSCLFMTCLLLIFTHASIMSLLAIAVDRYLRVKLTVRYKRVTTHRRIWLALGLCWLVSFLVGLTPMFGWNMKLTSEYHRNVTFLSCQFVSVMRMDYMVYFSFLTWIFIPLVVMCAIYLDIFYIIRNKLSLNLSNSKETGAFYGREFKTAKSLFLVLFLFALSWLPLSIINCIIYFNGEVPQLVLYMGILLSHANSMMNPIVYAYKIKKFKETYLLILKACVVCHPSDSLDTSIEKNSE

Vasopressin V1a receptor = Vasopressin V1a receptor (Homo sapiens, UniProt P37288)
Vasopressin V1a receptor, sequence (P37288 whole entry): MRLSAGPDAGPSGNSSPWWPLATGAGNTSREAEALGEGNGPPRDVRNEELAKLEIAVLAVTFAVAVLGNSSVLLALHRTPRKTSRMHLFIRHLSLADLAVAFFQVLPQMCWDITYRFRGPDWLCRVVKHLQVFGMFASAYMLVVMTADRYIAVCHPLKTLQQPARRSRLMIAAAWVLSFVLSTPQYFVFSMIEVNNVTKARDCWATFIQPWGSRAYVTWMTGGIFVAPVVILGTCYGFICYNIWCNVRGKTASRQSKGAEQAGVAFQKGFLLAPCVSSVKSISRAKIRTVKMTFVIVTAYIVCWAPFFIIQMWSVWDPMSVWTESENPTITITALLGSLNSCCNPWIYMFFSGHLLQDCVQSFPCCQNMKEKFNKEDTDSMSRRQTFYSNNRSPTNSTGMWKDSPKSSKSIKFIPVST

[1] = target: Gamma-aminobutyric acid receptor subunit alpha-1 (Rattus norvegicus, UniProt P62813); type: functional
Gamma-aminobutyric acid receptor subunit alpha-1, sequence (P62813 whole entry): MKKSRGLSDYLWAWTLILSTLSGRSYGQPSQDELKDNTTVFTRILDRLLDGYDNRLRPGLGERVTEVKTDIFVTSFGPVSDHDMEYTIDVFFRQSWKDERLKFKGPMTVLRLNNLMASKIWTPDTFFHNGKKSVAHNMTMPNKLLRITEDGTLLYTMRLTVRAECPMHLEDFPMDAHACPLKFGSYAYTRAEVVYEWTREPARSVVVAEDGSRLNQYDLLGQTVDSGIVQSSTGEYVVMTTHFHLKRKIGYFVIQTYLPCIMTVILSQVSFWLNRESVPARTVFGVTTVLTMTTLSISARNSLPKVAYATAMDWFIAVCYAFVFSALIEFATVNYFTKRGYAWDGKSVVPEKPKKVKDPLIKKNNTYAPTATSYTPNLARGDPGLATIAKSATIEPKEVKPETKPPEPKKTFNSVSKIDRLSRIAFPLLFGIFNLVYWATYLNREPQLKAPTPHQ

[2] = target: T2, Prostaglandin G/H synthase 1 (Rattus norvegicus, UniProt Q63921); type: functional
T2 sequence (Q63921 whole entry): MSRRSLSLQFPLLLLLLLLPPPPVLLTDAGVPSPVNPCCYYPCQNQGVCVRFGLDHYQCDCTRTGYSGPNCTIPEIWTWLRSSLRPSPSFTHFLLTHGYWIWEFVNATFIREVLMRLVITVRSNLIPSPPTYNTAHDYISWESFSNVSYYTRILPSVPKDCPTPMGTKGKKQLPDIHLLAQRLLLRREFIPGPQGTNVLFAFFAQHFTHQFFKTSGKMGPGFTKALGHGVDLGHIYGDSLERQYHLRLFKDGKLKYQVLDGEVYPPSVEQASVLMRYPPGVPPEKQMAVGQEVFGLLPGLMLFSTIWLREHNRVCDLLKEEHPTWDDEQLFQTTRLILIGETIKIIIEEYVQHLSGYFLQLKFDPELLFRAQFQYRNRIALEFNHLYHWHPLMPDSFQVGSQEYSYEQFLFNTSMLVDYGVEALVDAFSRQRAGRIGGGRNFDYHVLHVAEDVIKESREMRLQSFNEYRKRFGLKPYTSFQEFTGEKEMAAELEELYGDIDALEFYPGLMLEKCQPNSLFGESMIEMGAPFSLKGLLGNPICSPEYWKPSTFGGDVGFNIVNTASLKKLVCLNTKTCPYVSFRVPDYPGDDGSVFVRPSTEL

[3] = target: Sodium-dependent dopamine transporter (Homo sapiens, UniProt Q01959)
Sodium-dependent dopamine transporter, sequence (Q01959 whole entry): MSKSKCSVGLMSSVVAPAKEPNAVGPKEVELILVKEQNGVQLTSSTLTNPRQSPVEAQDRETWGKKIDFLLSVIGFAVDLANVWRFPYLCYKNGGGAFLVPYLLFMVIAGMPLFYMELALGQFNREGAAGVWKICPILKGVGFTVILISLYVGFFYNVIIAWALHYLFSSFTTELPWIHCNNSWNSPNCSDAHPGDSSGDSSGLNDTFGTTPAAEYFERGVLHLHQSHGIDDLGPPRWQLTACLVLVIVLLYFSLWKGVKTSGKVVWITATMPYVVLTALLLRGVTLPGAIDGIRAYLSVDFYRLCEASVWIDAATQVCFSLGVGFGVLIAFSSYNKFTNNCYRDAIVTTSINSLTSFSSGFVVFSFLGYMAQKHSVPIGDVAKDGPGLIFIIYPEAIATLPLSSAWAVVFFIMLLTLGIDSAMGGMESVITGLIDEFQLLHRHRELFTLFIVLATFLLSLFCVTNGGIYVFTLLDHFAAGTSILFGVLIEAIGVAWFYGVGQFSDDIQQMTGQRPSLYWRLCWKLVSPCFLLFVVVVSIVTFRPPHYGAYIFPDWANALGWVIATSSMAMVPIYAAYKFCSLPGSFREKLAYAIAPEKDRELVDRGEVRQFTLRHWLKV

[4] = target: Sodium-dependent noradrenaline transporter (Homo sapiens, UniProt P23975)
Sodium-dependent noradrenaline transporter, sequence (P23975 whole entry): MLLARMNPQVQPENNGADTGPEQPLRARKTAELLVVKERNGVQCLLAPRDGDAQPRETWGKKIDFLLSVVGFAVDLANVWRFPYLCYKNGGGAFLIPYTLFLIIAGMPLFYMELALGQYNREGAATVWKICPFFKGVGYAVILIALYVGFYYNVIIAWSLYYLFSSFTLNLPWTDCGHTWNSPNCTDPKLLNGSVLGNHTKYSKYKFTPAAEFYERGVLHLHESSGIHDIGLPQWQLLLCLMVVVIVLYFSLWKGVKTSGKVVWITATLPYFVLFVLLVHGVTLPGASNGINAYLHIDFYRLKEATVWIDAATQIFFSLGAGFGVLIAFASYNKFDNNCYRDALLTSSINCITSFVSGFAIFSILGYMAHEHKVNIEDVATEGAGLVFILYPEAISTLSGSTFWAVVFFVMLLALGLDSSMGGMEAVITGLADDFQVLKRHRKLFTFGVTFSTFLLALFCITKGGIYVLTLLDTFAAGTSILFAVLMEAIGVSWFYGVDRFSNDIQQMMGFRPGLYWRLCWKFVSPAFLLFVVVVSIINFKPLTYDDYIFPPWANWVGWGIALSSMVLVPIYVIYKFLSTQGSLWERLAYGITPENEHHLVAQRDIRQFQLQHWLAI

Mu-type opioid receptor = Mu-type opioid receptor (Homo sapiens, UniProt P35372)
Mu-type opioid receptor, sequence (P35372 whole entry): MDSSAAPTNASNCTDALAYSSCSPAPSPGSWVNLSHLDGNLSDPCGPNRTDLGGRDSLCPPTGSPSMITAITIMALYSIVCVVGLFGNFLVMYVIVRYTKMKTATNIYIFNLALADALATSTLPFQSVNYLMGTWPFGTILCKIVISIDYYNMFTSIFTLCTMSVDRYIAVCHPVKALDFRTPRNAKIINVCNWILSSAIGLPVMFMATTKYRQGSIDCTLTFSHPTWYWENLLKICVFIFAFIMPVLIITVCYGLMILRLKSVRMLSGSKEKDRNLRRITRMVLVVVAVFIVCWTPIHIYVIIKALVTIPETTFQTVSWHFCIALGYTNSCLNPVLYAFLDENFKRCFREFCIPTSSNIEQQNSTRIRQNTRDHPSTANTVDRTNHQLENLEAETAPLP

[5] = target: T3, Amine oxidase [flavin-containing] A (Homo sapiens, UniProt P21397); type: functional
T3 sequence (P21397 whole entry): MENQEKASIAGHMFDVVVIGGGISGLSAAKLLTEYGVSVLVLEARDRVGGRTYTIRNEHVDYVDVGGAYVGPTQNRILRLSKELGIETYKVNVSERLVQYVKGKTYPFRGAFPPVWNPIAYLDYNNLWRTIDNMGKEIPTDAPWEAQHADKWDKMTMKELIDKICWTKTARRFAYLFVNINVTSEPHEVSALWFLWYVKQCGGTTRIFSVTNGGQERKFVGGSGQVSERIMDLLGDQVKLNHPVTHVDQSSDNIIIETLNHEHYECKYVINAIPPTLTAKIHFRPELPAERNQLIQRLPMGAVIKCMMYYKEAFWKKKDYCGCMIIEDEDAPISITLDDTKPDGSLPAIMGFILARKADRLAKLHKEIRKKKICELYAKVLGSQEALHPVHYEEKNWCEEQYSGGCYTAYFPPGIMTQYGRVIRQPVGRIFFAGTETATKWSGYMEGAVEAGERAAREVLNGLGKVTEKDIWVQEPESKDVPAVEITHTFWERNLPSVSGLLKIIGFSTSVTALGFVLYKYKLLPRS

[6] = target: cGMP-inhibited 3',5'-cyclic phosphodiesterase 3A (Homo sapiens, UniProt Q14432); type: functional
[7] = target: T4, Alpha-1A adrenergic receptor (Homo sapiens, UniProt P35348); type: functional, cell-based
T4 sequence (P35348 whole entry): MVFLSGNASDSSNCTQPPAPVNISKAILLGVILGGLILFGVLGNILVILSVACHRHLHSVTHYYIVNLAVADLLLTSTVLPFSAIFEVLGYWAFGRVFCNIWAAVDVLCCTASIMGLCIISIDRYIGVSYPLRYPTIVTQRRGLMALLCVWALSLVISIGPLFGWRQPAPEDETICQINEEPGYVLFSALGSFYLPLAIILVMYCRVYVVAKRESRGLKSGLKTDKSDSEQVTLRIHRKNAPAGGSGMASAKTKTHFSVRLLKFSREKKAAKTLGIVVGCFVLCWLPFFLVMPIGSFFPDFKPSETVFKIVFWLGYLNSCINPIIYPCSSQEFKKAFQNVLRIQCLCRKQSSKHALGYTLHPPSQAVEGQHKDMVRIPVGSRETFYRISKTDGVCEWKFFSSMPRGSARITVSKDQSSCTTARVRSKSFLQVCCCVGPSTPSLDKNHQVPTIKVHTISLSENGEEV

[8] = target: Kappa-type opioid receptor (Homo sapiens, UniProt P41145)
Kappa-type opioid receptor, sequence (P41145 whole entry): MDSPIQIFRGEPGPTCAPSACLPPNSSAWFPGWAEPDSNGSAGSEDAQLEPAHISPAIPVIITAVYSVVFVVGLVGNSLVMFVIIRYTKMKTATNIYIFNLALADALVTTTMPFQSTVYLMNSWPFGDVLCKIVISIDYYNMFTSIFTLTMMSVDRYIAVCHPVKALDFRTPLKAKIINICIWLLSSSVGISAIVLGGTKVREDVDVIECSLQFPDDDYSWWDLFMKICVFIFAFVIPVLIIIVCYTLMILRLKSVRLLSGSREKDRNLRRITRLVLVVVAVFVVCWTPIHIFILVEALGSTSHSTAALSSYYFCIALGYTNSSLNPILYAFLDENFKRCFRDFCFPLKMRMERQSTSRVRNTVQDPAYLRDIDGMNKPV

[9] = target: T4, Alpha-1A adrenergic receptor; type: functional, cell-based; remark: listed apart in the source
[10] = target: Voltage-dependent L-type calcium channel subunit alpha-1C (Rattus norvegicus, UniProt P22002); type: functional
Voltage-dependent L-type calcium channel subunit alpha-1C, sequence (P22002 whole entry): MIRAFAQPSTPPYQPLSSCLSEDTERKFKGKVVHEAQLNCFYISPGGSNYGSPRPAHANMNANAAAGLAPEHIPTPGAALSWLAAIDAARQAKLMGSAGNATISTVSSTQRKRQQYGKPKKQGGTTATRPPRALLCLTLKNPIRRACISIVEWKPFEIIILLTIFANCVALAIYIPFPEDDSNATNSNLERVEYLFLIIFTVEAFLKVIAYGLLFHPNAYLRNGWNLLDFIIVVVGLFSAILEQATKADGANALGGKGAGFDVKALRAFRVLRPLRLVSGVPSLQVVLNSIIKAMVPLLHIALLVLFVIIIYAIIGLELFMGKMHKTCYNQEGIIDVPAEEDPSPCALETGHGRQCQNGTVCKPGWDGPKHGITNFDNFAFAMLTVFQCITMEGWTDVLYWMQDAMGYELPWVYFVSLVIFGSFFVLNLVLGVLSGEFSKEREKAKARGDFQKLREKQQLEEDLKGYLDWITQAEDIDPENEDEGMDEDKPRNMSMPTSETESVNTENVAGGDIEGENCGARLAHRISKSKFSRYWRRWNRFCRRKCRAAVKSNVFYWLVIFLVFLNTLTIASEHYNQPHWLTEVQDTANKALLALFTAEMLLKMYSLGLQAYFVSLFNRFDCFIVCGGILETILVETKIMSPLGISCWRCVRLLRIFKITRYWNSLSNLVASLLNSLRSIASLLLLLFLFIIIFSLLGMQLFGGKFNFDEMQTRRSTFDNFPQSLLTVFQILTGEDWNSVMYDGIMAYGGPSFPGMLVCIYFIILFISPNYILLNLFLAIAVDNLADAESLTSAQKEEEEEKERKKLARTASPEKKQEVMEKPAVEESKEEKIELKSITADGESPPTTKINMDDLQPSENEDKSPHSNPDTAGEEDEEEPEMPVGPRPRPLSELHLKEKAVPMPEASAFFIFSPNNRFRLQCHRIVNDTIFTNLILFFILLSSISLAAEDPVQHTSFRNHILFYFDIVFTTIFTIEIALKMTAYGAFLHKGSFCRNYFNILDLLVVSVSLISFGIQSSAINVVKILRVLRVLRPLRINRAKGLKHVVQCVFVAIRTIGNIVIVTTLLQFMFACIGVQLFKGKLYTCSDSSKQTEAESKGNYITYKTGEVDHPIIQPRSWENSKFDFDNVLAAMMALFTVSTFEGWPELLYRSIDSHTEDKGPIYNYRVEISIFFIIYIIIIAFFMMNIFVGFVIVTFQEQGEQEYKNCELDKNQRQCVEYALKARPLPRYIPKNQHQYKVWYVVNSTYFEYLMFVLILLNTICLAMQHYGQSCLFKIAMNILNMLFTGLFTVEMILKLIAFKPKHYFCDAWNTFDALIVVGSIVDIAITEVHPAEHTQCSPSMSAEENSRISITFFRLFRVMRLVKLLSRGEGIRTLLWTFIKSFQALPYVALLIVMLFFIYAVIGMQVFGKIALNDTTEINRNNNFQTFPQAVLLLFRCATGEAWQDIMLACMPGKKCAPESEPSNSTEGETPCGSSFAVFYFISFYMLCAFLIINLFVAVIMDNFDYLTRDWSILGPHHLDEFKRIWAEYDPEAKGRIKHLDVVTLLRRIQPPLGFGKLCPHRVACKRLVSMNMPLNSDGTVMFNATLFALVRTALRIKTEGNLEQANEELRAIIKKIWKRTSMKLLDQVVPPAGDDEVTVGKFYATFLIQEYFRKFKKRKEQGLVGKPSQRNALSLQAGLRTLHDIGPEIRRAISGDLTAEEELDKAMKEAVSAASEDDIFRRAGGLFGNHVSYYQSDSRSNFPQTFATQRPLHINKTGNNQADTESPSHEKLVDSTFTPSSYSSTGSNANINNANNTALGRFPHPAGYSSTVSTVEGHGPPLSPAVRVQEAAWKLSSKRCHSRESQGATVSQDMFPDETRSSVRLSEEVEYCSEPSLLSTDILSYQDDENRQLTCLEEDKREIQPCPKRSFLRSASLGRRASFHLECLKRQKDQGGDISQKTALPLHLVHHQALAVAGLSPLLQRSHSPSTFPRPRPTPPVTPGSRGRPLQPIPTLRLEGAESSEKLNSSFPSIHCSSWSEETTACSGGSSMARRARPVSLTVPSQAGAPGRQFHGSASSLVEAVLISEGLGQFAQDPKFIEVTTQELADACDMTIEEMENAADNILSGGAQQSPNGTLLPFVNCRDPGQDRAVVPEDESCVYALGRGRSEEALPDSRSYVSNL

[11] = target: T5, Gastrin/cholecystokinin type B receptor (Homo sapiens, UniProt P32239)
T5 sequence (P32239 whole entry): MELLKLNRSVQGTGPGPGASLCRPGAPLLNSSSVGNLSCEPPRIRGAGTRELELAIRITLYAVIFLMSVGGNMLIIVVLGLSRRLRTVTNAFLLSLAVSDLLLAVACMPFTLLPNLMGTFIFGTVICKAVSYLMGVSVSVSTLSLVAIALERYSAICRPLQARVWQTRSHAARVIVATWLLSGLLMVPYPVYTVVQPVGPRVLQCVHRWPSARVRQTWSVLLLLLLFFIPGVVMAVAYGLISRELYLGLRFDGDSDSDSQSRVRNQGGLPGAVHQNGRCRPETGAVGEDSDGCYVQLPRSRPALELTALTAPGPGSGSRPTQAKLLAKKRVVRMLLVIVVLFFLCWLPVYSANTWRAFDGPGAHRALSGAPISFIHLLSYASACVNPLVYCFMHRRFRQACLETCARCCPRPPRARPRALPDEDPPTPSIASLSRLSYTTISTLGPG
Further: assay procedure not described here.

Structure (SMILES): CN1C[C@H](C(=O)N[C@]2(C)O[C@@]3(O)[C@@H]4CCCN4C(=O)[C@H](Cc4ccccc4)N3C2=O)C=C2c3cccc4[nH]cc(c34)C[C@H]21 [ERGOTAMINE]
- AC50 (Adenosine receptor A3): > 30 µM
- AC50 (Vasopressin V1a receptor): > 30 µM
- AC50 [1]: > 30 µM
- AC50 [2]: 26 µM
- AC50 [3]: > 30 µM
- AC50 [4]: > 30 µM
- AC50 (Mu-type opioid receptor): > 30 µM
- AC50 [5]: > 30 µM
- AC50 [6]: > 30 µM

Structure (SMILES): CC(=O)O[C@]1(C(C)=O)CC[C@H]2[C@@H]3C=C(C)C4=CC(=O)CC[C@@H]4[C@H]3CC[C@@]21C [NOMEGESTROL ACETATE]
- AC50 (Adenosine receptor A3): > 30 µM
- AC50 [7]: > 10 µM
- AC50 [1]: 2.5 µM
- AC50 [8]: > 30 µM
- AC50 [2]: > 30 µM
- AC50 [3]: > 30 µM
- AC50 [4]: > 30 µM
- AC50 [5]: > 30 µM
- AC50 [6]: > 30 µM
- AC50 [9]: > 30 µM

Structure (SMILES): CC(S)C(=O)NCC(=O)O (centres undefined) [TIOPRONIN]
- AC50 (Adenosine receptor A3): > 30 µM
- AC50 (Vasopressin V1a receptor): > 30 µM
- AC50 [1]: > 30 µM
- AC50 [2]: 3.3 µM
- AC50 [3]: > 30 µM
- AC50 [4]: > 30 µM
- AC50 (Mu-type opioid receptor): > 30 µM
- AC50 [5]: > 30 µM
- AC50 [6]: > 30 µM
- AC50 [9]: > 30 µM

Structure (SMILES): CCN1CCN(Cc2ccc(Nc3ncc(F)c(-c4cc(F)c5nc(C)n(C(C)C)c5c4)n3)nc2)CC1 [ABEMACICLIB]
- AC50 (Adenosine receptor A3): > 30 µM
- AC50 (Vasopressin V1a receptor): > 30 µM
- AC50 [1]: > 30 µM
- AC50 [2]: > 30 µM
- AC50 [3]: > 30 µM
- AC50 [4]: > 30 µM
- AC50 (Mu-type opioid receptor): > 30 µM
- AC50 [5]: > 30 µM
- AC50 [6]: > 30 µM
- AC50 [9]: > 30 µM

Structure (SMILES): CCN(CC)CCNC(=O)c1c(C)[nH]c(/C=C2\C(=O)Nc3ccc(F)cc32)c1C [SUNITINIB]
- AC50 (Adenosine receptor A3): 8.4 µM
- AC50 (Vasopressin V1a receptor): > 10 µM
- AC50 [10]: > 30 µM
- AC50 [11]: > 10 µM
- AC50 [1]: > 30 µM
- AC50 [8]: 10.3 µM
- AC50 [2]: > 30 µM
- AC50 [4]: 1.76 µM
- AC50 (Mu-type opioid receptor): 4.9 µM
- AC50 [5]: > 30 µM
- AC50 [6]: 18 µM

Structure (SMILES): CCCC(CCC)C(=O)O [VALPROIC ACID]
- AC50 (Adenosine receptor A3): > 30 µM
- AC50 (Vasopressin V1a receptor): > 30 µM
- AC50 [10]: > 10 µM
- AC50 [11]: > 30 µM
- AC50 [1]: > 10 µM
- AC50 [8]: > 10 µM
- AC50 [2]: > 30 µM
- AC50 [3]: 4.97 µM
- AC50 [4]: > 30 µM
- AC50 (Mu-type opioid receptor): > 30 µM
- AC50 [5]: > 10 µM
- AC50 [6]: > 30 µM

Structure (SMILES): COc1cc2nc(N3CCN(C(=O)C4CCCO4)CC3)nc(N)c2cc1OC (centres undefined) [TERAZOSIN]
- AC50 (Adenosine receptor A3): > 30 µM
- AC50 (Vasopressin V1a receptor): > 10 µM
- AC50 [11]: > 30 µM
- AC50 [1]: > 10 µM
- AC50 [2]: > 30 µM
- AC50 [3]: > 10 µM
- AC50 [4]: > 10 µM
- AC50 (Mu-type opioid receptor): 3 µM
- AC50 [5]: > 10 µM
- AC50 [6]: > 30 µM

Structure (SMILES): CN1C(C(=O)Nc2ccccn2)=C(O)c2ccccc2S1(=O)=O [PIROXICAM]
- AC50 (Adenosine receptor A3): > 10 µM
- AC50 (Vasopressin V1a receptor): > 10 µM
- AC50 [10]: > 10 µM
- AC50 [1]: > 10 µM
- AC50 [8]: > 10 µM
- AC50 [3]: > 10 µM
- AC50 [4]: > 10 µM
- AC50 (Mu-type opioid receptor): > 30 µM
- AC50 [5]: > 30 µM
- AC50 [6]: > 30 µM

Structure (SMILES): CC(C(=O)O)c1ccc2c(c1)[nH]c1ccc(Cl)cc12 (centres undefined) [CARPROFEN]
- AC50 (Adenosine receptor A3): > 30 µM
- AC50 (Vasopressin V1a receptor): > 30 µM
- AC50 [10]: > 10 µM
- AC50 [11]: > 30 µM
- AC50 [1]: > 10 µM
- AC50 [8]: > 10 µM
- AC50 [2]: > 30 µM
- AC50 [3]: > 30 µM
- AC50 [4]: > 30 µM
- AC50 (Mu-type opioid receptor): > 30 µM
- AC50 [5]: > 10 µM
- AC50 [6]: > 30 µM
